The text below walks through data of patent US11370847B2, “Single domain antibodies directed against intracellular antigens” (Singh Biotechnology, LLC, priority 2014, dated 2022).

One test deals with PANC-1 cells. The test can be described thus: MTT proliferation assay, PANC-1. The settings on record: for Abs: 72 hours.
The next test has as its system STAT3. Nature of the test: STAT3 reporter GloResponse SIE-luc2P/HEK293 assay, IL-6 induction.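 On all read-outs here: SIE-luc2P/HEK293 reporter cells stimulated with IL-6 at 40 ng/mL (EC80) after pretreatment, luciferase luminescence (RLU) read the following day, triplicate wells.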 The format is cell-based. The settings on record: for effect on IL-6 induction of the STAT3 reporter: 24 and 48 hours treatment, VHH13 and VHH69 at highest concentration, VHH14 at both concentrations.
For a further test, the system named is SJSA-1 cells. The test can be described thus: MTT proliferation assay, SJSA-1. The format is cell-based, human. The settings on record: SJSA-1; 72 hours; 50 μg/ml.
In a further test the test system is MDA-MB-231 cells. Nature of the test: MTT proliferation assay, MDA-MB-231.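 On all read-outs here: proliferation of cultured human cancer cells read by MTT, with treated groups compared against a vehicle control group.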 The format is cell-based, human. The settings on record: for Mean: mean absorbance.
Test [1] has as its target T1, active human TNF-α full length protein (Homo sapiens, UniProt P01375).
T1 construct: active human TNF-α full length protein; purchased Abcam
The test can be described thus: TNF-α binding ELISA. How it is done:
In this Example, the binding of anti-TNF-α sdAbs to active human TNF-α full length protein was assessed using an enzyme linked immunosorbent assay (ELISA) format. Additionally, the feasibility of utilizing a secondary antibody targeted to the his tag portion of the sdAbs was assessed.
The test articles for this study were anti-TNF-α VHH62 (SEQ ID NO:47) sdAb, TNF-α VHH66 (SEQ ID NO:45) sdAb, and anti-TNF-α VHH69 (SEQ ID NO:46) sdAb (Experiment 1).
For the assays to assess the binding of the sdAbs to TNF-α protein (Experiment 1, 4 and 5), a standard sandwich ELISA format was utilized. […] Plates were incubated overnight at 2-8° C. After the incubation, plates were washed (3×) and blocked (3% Bovine Serum Albumin (BSA) in Phosphate Buffered Saline (PBS)) for at least one hour at room temperature.
After removal of the blocking buffer and washing (3×), samples were added to the appropriate wells of the ELISA plates and incubated at room temperature with shaking (150 rpm) for at least one hour. The secondary antibody (rabbit anti-llama biotinylated antibody at either a1:5,000 or 10,000 dilution) was then added to each well and incubated with shaking for at least one hour at room temperature.
After the incubation with secondary antibody, the plates were again washed (3×) and horseradish peroxidase (HRP) at either a 1:25,000 or 1:50,000 dilution was added to each well. Plates were incubated with shaking for at least one hour at room temperature. A final wash (3×) was performed followed by the addition of TMB (Tetramethylbenzidine) substrate. After a 20 to 25 minute incubation at room temperature, stop solution was added to halt the colorimetric reaction. The absorbance at 450 nm was measured on a VersaMax instrument utilizing SoftMax Pro GxP version 5.4 software from Molecular Devices (Sunnyvale, Calif.).
The final experiment performed was to confirm that the results from the ELISA testing were due to binding to the TNF-α protein and not non-specific binding of the sdAb. For this determination, a comparison was made between wells coated with 0.5 μg/mL of coating antigen and non-coated wells. […] This experiment confirms that the detection seen with the previous experiments was due to the specific binding of the VHH to the coating antigen and not due to non-specific binding.

For test [2], the system named is rabbit anti-llama biotinylated antibody or his-probe (H-3) biotin labeled antibody. Nature of the test: ELISA of secondary antibody binding to coated sdAbs. The settings on record: Experiment 3, sdAb coated at 1 μg/mL, stored 1:100 dilution. On the procedure: Two assays (Experiment 2 and 3) were performed to assess the binding of the secondary antibody to the sdAbs. A similar ELISA method was utilized except the sdAbs were directly coated onto the assay plate at a concentration of 1 μg/mL. Plates were incubated overnight at 2-8° C. After the incubation, plates were washed (3×) and blocked (3% BSA in PBS) for at least one hour at room temperature.
After removal of the blocking buffer and washing (3×), the secondary antibodies, either rabbit anti-llama biotinylated antibody or his-probe (H-3) biotin labeled antibody at was then added at a 1:5,000 dilution to each well and incubated with shaking for at least one hour at room temperature. Only the rabbit anti-llama biotinylated antibody was used in Experiment 2. Both antibodies were run in parallel in Experiment 3.
After the incubation with secondary antibody, the plates were again washed (3×) and HRP at a 1:50,000 dilution was added to each well. Plates were incubated with shaking for at least one hour at room temperature. One last wash (3×) was performed followed by the addition of TMB substrate and plates were incubated at room temperature. For the anti-llama biotinylated antibody stop solution was added to halt the colorimetric reaction at 10 minutes. The his-probe (H-3) biotin labeled antibody was allowed to incubate for 20 minutes prior to stopping. The absorbance at 450 nm was measured as before.

The target of the next test is T2, TNF-α (Homo sapiens, UniProt P01375).
T2 construct: purchased Sigma-Aldrich
The test can be described thus: Inhibition of TNF-α cytotoxicity against U937 by anti-TNF-α VHHs. It is filed as cell-based. The settings on record: constant dose of TNF-α at EC50. How it is done:
The concentration of TNF-α required to show measurable modulation of activity in the U937 human […] cell line was evaluated by quantitation of the ATP present, which signals the presence of metabolically active cells using Promega's Cell Titer-Glo® Luminescent Cell Viability assay.
The U937 cells were seeded in a clear polystyrene 96-well microculture plate (Corning® Costar® 96-well flat bottom plate, Cat. #3997) in a total volume of 90 μL/well. After 24 hours of incubation in a humidified incubator at 37° C. with 5% CO2 and 95% air, 5 μL of 20×, serially diluted TNF-α in growth medium was added to each well in duplicate (10 pt dose response, highest concentration 20 ng/mL). Additionally, 5 μL of 20×, diluted staurosporine in growth medium was added to each well in duplicate (concentration 1 nM).
After 24 hours of culture in the presence of test agents, the concentration of compound required to show measurable modulation of TNF-α activity in the U937 cell line as evaluated by quantitation of the ATP present. Percent cell growth was calculated relative to untreated control wells. All tests were performed in duplicate at each concentration level.
The EC50 value for the test agents was estimated using Prism 6.05 by curve-fitting the data using the following four parameter-logistic equation: […]

Setting [3] is: Homo sapiens, PANC-1, 72 h, read-out: % Inhibition, Growth Inhibition of PANC-1 Cells.
The mark [4] stands for this setting: 24 Hour Treatment Prior to IL6 Induction, higher conc.: VHH13 55.8 μg/mL, VHH14 84.3 μg/mL, BB1608 4.16 μM, VHH69 50.5 μg/mL.
Where [5] appears, read: 24 Hour Treatment Prior to IL6 Induction, lower conc.: VHH13, VHH14, VHH69 10 μg/mL, BB1608 2 μM.
Where [6] appears, read: 48 Hour Treatment Prior to IL6 Induction, higher conc.: VHH13 55.8 μg/mL, VHH14 84.3 μg/mL, BB1608 4.16 μM, VHH69 50.5 μg/mL.
[7] abbreviates: 48 Hour Treatment Prior to IL6 Induction, lower conc.: VHH13, VHH14, VHH69 10 μg/mL, BB1608 2 μM.

“And” between values parts separate entries of the source, which are not always exact repeats. Equal entries are not always repeated. Where two headings read alike, the source gives them in different places.

T1 sequence (P01375 77-233 limits assumed): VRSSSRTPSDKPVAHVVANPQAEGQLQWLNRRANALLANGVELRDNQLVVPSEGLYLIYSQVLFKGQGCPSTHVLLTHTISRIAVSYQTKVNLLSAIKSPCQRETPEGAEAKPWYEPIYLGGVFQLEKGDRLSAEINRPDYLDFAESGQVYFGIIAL
T2 sequence (P01375 77-233 limits assumed): as above

Turning to `Nc1ccn([C@@H]2O[C@H](CO)[C@@H](O)C2(F)F)c(=O)n1` [Gemcitabine], the Abs in the test on PANC-1 cells (Gemcitabine Hydrochloride (Biovision #1759) 0.020 μM alone) was 1.631; in the test with PANC-1 cells (Gemcitabine Hydrochloride (Biovision #1759) 0.039 μM alone), 1.550; in the test with PANC-1 cells (Gemcitabine Hydrochloride (Biovision #1759) 0.313 μM alone), 1.084; in the test on PANC-1 cells (Gemcitabine Hydrochloride (Biovision #1759) 0.625 μM alone) it was 1.001; with PANC-1 cells (Gemcitabine Hydrochloride (Biovision #1759) 5 μM alone), 0.654; in the test on PANC-1 cells (Gemcitabine Hydrochloride (Biovision #1759) 10 μM alone), 0.576. The inhibition at 0.02 µM in the test on PANC-1 cells (Homo sapiens, PANC-1) was found to be 0%. The same molecule gave an inhibition at 0.039 µM in the test on PANC-1 cells (Homo sapiens, PANC-1) of 0%. Moreover, in the test with PANC-1 cells (Homo sapiens, PANC-1), the inhibition at 0.313 µM was 5%. Moreover, in the test on PANC-1 cells (Homo sapiens, PANC-1), at 0.625 µM the inhibition was 0%. In addition, the inhibition at 5 µM in the test with PANC-1 cells (Homo sapiens, PANC-1) came to 40%; in the test on PANC-1 cells (setting [3]) it was 38%. Also, the inhibition at 10 µM with PANC-1 cells (Homo sapiens, PANC-1) amounted to 48%; in the test on PANC-1 cells (setting [3]), 35%; in the test on PANC-1 cells (Homo sapiens, PANC-1, 72 h, read-out: growth inhibition of PANC-1 cells), 48%.

As for `CC(=O)c1cc2c(o1)C(=O)c1ccccc1C2=O` [BBI608, napabucasin, reference compound], the “Average RLU” value in the test with STAT3 (setting [4]) and in the test with STAT3 (setting [7]) was 33 RLU in each case. In addition, the “Luminescence (replicate wells)” value in the test on STAT3 (setting [4]) is 41 RLU and 28 RLU and 31 RLU; in the test on STAT3 (setting [5]), 41 RLU and 33 RLU and 39 RLU; in the test on STAT3 (setting [6]) it was 32 RLU and 25 RLU and 31 RLU; in the test on STAT3 (setting [7]), 31 RLU and 26 RLU and 42 RLU. Besides, the “Fold-Induction RLU/RLU of −IL6” value in the test on STAT3 (setting [5]) and with STAT3 (setting [6]) was 0 in each case. Besides, the “effect on IL-6 induction of the STAT3 reporter” value in the test on STAT3 is “Inhibition of IL-6”.

As for “Curirx P04: SBT-100 produced by Curirx, P04 buffer sample”, in the test with SJSA-1 cells, the “growth inhibition” value is “significant growth inhibition”.

On to “MPT His Tag: SBT-100 produced by Microprotein Technologies, His tag preparation”, for which, in the test with MDA-MB-231 cells (MDA-MB-231), the “inhibition compared with other SBT-100 preparations” value is “greatest inhibition”. In addition, in the test on MDA-MB-231 cells (MDA-MB-231, 50 μg/ml), the “MTT absorbance, single replicates” value is 0.095 and 0.091 and 0.102 and 0.1 and 0.087 and 0.092; the Mean amounted to 0.0945. Also, in the test with MDA-MB-231 cells (MDA-MB-231, 100 μg/ml), the “MTT absorbance, single replicates” value is 0.74 and 0.8 and 0.82; the Mean was determined as 0.079.

With “MPT B1 (pH 5.0): SBT-100 produced by Microprotein Technologies”, the “MTT absorbance, single replicates” value with MDA-MB-231 cells (MDA-MB-231, 50 μg/ml) was 0.924 and 0.741 and 0.834 and 0.749 and 0.771 and 0.77; with MDA-MB-231 cells (MDA-MB-231, 100 μg/ml) it was 0.65 and 0.656 and 0.624. For the same molecule, the Mean with MDA-MB-231 cells (MDA-MB-231, 50 μg/ml) amounted to 0.798; with MDA-MB-231 cells (MDA-MB-231, 100 μg/ml), 0.643.

B1: anti-TNF-α VHH62: anti-TNF-α sdAb, SEQ ID NO:47 (protein)
VHH: QVQLVESGGGPVQAGETLRLSCTASGFTFAEADMGWYRQAPGHECELVSTITTEGITSEASSYYADSVRGRFTISRDNAKNMVYLQMNSLKPEDTAVYYCAPDPYAYSTYSDYCSWAQGTQGTLVTVSS
modifications: Camelid
On to B1, for which the “detection in coated versus non-coated wells” value in test [1] (0.5 μg/mL coating antigen, sdAb at 1 μg/mL) is given as “not detected in either coated or non-coated wells”. Moreover, the “detection in TNF-α ELISA” value in test [1] (Experiment 1, 1 μg/mL sdAb) was “little to no detection”. For the same molecule, the OD450 in test [1] (Experiment 4, original and new receipt, dilutions starting at 1 μg/mL) was less than 0.2 OD450. Also, the “OD450 Values” in test [1] (Non-Coated wells (non-specific binding), sdAb 1 μg/mL) was −0.001; in test [2] (His-probe (H-3)) it was 0.196; in test [2] (Rabbit anti-Llama Secondary Antibody) it was 2.341. Besides, the “inhibition of TNF-α killing of U937” value with TNF-α is recorded as “inhibit killing of U937 by TNF-α”.

B2: anti-STAT3 VHH14: second anti-STAT3 sdAb, SEQ ID NO:4 (protein)
VHH: QVQLVESGGGSVQAGGSLRLSCVASTYTGCMGWFRQAPGKEREGVAALSSRGFAGHYTDSVKGRFSISRDYVKNAVYLQMNTVKPEDAAMYYCAAREGWECGETWLDRTAGGHTYWGQGTLVTVSS
modifications: Camelid
With B2, in the test with STAT3, the “effect on IL-6 induction of the STAT3 reporter” value is “enhancement of the IL-6 induction”.
